ChEMBL document CHEMBL1201862, “PubChem BioAssay data set” (2004)
The source made the active and inactive calls.

How the values were obtained:
Protein skinhead-1 = target: T1, Protein skinhead-1 (Caenorhabditis elegans, UniProt P34707); type: functional
T1 sequence (P34707 whole entry): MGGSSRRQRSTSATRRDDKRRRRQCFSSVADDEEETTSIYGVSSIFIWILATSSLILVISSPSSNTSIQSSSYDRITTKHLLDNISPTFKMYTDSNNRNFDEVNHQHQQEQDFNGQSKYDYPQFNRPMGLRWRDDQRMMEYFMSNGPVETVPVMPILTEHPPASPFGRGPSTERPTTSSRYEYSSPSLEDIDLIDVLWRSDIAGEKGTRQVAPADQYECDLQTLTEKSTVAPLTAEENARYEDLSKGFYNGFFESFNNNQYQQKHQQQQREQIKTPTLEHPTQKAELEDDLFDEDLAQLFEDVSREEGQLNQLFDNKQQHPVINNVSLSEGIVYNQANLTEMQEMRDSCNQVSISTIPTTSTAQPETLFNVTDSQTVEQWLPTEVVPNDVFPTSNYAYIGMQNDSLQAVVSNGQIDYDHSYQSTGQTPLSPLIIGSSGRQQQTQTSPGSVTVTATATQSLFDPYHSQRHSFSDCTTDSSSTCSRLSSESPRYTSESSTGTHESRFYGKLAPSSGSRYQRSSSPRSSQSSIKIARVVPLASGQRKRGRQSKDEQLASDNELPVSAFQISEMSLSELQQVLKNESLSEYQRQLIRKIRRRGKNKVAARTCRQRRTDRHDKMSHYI

[1] = target: T2, Ubiquitin-conjugating enzyme E2 N (Homo sapiens, UniProt P61088); type: functional;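 further: Dose-response confirmation in a TR-FRET assay detecting UBC13-driven polyubiquitin chain formation, inhibition measured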
T2 sequence (P61088 whole entry): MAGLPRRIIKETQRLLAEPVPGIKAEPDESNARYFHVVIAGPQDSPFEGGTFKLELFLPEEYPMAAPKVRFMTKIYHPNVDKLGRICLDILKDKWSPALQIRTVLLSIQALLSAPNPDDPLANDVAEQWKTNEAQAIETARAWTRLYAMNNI

H4 = assay: Luminescence Cell-Based Dose Response HTS to Identify Activators of 5'UTR Stem-Loop Driven Prion Protein mRNA Translation in H4 Neuroglioblastoma Cells. [Related pubchem assays: 1829 (Project Summary), 1814 (Primary HTS)]; type: functional; conditions: Homo sapiens
[2] = Luminescence Cell-Based Dose Response HTS to Identify Activators of Luciferase Translation or Activity in H4 […] Cells. [Related pubchem assays: 1829 (Project Summary), 1814 (Primary HTS)]; type: functional
[3] = Luminescence Cell-Based Dose Confirmation HTS to Identify Activators of 5'UTR Stem-Loop Driven Alpha-Synuclein mRNA Translation in H4 Neuroglioblastoma Cells. [Related pubchem assays: 1829 (Project Summary), 1814 (Primary HTS)]; type: functional
Large T antigen = Large T antigen (Simian virus 40, UniProt P03070); type: functional, Betapolyomavirus macacae;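 further: Confirmatory-stage PubChem screen for compounds that inhibit SV40 T antigen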
Chain of Large T antigen (P03070 whole entry): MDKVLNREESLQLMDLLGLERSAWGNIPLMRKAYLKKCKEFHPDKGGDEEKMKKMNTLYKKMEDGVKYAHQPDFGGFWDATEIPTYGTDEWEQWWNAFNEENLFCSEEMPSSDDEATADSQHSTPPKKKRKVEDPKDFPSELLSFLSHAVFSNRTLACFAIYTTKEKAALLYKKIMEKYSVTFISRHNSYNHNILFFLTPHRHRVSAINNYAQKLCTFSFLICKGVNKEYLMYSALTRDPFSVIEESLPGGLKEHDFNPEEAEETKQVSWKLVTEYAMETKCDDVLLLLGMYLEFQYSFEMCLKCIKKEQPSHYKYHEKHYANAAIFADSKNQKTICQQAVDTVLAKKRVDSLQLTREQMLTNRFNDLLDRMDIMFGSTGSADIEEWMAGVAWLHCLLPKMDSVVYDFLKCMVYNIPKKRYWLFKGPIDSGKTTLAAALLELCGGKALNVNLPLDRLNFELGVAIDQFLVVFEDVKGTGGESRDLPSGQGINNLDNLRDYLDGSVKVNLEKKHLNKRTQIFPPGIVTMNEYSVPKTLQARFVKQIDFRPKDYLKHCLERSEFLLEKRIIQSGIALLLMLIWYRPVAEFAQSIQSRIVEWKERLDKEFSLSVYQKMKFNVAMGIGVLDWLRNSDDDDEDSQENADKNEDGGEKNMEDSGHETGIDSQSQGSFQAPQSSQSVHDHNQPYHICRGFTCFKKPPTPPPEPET

[4] = target: T3, Rac GTPase-activating protein 1 (Homo sapiens, UniProt Q9H0H5); assay: blockers of MgcRacGAP-driven Rac1 GTP hydrolysis – biochemical, ADP Hunter fluorescence, primary and confirmatory, confirmation (AID 624330); type: functional
T3 sequence (Q9H0H5 whole entry): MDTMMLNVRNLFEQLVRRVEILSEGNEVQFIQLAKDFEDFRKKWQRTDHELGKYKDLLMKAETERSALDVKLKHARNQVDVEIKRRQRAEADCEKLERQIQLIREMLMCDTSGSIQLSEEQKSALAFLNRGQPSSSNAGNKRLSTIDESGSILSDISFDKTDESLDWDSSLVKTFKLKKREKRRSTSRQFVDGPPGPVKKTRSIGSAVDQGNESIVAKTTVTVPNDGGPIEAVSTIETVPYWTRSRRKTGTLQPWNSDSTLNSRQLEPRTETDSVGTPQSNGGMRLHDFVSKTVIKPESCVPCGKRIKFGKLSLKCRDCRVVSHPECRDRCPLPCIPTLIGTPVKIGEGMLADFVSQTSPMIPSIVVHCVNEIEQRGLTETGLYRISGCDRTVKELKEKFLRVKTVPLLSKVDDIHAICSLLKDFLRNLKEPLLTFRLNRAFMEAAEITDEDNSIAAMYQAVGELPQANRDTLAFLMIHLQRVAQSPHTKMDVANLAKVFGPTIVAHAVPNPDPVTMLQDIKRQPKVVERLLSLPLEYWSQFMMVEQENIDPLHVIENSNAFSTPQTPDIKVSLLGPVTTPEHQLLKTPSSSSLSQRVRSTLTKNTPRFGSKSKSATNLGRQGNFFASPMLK

[5] = microbe, parasite or virus in culture; type: functional; conditions: Mycobacterium tuberculosis
[6] = NIH3T3 cell viability loss – ATP luminescence, mouse fibroblasts, counter-screen, dose response (AID 2010); type: functional, cell-based;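 further: cells exposed to compound for about 90 hours before reading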
[7] = Trypanosoma cruzi growth suppression in host cells – NIH3T3 host cells, beta-gal luminescence, confirmation (AID 2044); type: functional, cell-based;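 further: intracellular parasites grown in NIH/3T3 mouse fibroblasts as host cells; luminescent beta-galactosidase reporter signal from transgenic T. cruzi replicating inside host cells; inhibitors lower the luminescence signal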
[8] = target: T4, Carboxy-terminal domain RNA polymerase II polypeptide A small phosphatase 1 (Homo sapiens, UniProt Q9GZU7); assay: CTDSP1 inhibitors, concentration-response, biochemical, absorbance readout, ultra-high-throughput screen actives (AID 540297); type: functional
T4 sequence (Q9GZU7 whole entry): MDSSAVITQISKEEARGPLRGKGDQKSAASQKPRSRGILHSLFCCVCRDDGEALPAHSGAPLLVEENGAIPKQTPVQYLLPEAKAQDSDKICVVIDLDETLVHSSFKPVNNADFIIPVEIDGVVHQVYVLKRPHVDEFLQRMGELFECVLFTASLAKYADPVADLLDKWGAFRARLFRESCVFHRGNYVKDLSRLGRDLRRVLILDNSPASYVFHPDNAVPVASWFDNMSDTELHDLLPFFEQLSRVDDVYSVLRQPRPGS

cells = type: functional
[9] = target: FAD-linked sulfhydryl oxidase ALR (Homo sapiens, UniProt P55789); assay: ALR-catalysed DTT oxidation blockers – biochemical, H2O2 detection, luminescence, cherry-pick, dose response (AID 493248)
Chain of FAD-linked sulfhydryl oxidase ALR (P55789 whole entry): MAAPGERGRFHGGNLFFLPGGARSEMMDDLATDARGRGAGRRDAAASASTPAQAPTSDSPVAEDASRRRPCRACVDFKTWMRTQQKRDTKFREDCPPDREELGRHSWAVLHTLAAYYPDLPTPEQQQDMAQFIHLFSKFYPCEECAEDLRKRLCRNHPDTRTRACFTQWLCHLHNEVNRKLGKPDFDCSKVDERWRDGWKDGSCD

Cytochrome P450 1A2 = target: T5, Cytochrome P450 1A2 (Homo sapiens, UniProt P05177);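 further: PubChem cytochrome P450 panel assay, CYP1A2 panel member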
T5 sequence (P05177 whole entry): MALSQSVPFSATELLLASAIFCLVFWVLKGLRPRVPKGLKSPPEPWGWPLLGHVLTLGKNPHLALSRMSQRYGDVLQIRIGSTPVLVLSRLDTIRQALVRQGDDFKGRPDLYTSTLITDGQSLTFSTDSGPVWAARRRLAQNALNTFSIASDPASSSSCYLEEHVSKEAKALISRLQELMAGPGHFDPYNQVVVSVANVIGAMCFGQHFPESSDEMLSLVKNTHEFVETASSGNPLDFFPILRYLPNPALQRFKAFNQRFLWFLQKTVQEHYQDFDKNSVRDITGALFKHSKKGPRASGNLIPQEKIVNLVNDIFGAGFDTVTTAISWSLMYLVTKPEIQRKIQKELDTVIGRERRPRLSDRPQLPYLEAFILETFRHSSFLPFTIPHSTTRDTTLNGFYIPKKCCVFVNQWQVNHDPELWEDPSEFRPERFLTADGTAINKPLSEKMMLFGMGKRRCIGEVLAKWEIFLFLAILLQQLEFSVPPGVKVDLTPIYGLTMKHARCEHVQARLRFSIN

[10] = target: T6, Heat shock factor protein 1 (Mus musculus, UniProt P38532); assay: enhancement of HSF1-driven luciferase signal – cell-based, NIH3T3, luminescence, dose retest, confirmation (AID 435004); type: functional;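 further: stress induced by proteasome inhibitor MG132 added 30 min after compound; luciferase reporter driven by HSF1 response element in NIH3T3 cells; actives raise luminescence as potentiators of the MG132 stress response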
T6 sequence (P38532 whole entry): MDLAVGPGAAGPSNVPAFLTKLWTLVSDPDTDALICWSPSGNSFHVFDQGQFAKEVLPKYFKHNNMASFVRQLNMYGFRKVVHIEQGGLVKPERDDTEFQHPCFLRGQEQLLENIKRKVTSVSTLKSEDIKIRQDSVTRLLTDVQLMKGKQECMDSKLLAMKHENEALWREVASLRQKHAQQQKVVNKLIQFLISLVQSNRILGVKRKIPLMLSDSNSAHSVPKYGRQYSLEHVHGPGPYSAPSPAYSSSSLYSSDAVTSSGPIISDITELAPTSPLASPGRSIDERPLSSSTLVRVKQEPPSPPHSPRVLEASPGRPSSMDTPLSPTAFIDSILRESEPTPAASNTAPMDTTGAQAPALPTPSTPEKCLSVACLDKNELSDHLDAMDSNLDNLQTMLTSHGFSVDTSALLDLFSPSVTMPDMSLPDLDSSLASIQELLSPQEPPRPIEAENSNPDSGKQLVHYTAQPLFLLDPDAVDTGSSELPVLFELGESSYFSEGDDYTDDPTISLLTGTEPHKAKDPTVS

[11] = reduction of Shn3 3'UTR-driven luciferase in osteoblasts – cell-based, Clone20 osteoblasts, firefly luciferase, cherry-picked, dose response (AID 624132); type: functional;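 further: firefly luciferase luminescence from reporter carrying the Shn3 3'UTR in osteoblasts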
[12] = viability of PTEN-deleted HCT116 cells – cell-based, HCT116 PTEN knockout, dose response (AID 1047); type: functional;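 further: HCT116 colon tumor cells with PTEN knocked out; cells exposed to compound for 60 hours before readout; potency for loss of cell viability measured by luminescence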
[13] = viability of HCT116 lacking mutant beta-catenin – cell-based, human colon tumor, dose response (AID 1045); type: functional;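 further: HCT116 colon tumor cells with beta catenin knocked out; cells exposed to compound for 60 hours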

Cc1ccc(C(=O)Nc2nc(-c3ccc(F)cc3)cs2)o1
IC50 (Protein skinhead-1): > 100 µM (inactive)

O=C(CCCCCN1C(=O)c2cccc3cccc(c23)C1=O)NCc1ccco1
IC50 [1]: > 20 µM (inactive)

COc1cccc(NCc2cc(=O)oc3cc(-c4ccccc4)c(O)cc23)c1
EC50 (H4): 20 µM (active)
EC50 [2]: 15.2 µM (active)
EC50 [3]: 21.8 µM (active)

CCCNC(=O)c1ccc2snnc2c1
IC50 (Protein skinhead-1): > 100 µM (inactive)

C=CCn1c(SCC(=O)N(CC)C2CCS(=O)(=O)C2)nnc1-c1ccccc1 (configuration not stated)
IC50 [1]: > 20 µM (inactive)

COc1cc(/C=N\NC(=O)C2CC3C=CC2C3)ccc1O (configuration not stated)
IC50 (Large T antigen): 13.3 µM (active)
IC50 [4]: 23.4 µM (active)

Cc1ccc(NC(=O)c2cnn(-c3ccccc3)c2C)c(C)c1
EC50 (H4): > 120 µM (not active)
EC50 [2]: 37.9 µM (active)
EC50 [3]: 0.463 µM (active)

N#CC1=C2SCN(c3ccccc3)CN2C(=O)CC1c1ccccc1Cl (configuration not stated)
IC50 (Large T antigen): 36.3 µM (active)

CC1(C)c2[nH]c3ccccc3c2C[C@@H]2C(=O)N(Cc3ccccc3F)C(=O)N21
CC50 [5]: > 40 µM (active)

c1ccc(-c2ccc(OCCCNC3CCCC3)cc2)cc1
EC50 [6]: > 60 µM (not active)
EC50 [7]: 1.03 µM (active)
IC50 (Protein skinhead-1): 20.8 µM (active)

COc1ccccc1NC(=O)Oc1ccc(NC(=O)c2ccco2)cc1
IC50 (Large T antigen): 22.9 µM (active)

COc1ccccc1C(=O)Nc1c2c(nn1-c1cccc(C)c1C)CS(=O)(=O)C2
IC50 [8]: 10.1 µM (active)
IC50 [1]: > 20 µM (inactive)

Cc1ccc(N2C(=O)NC(=O)/C(=C/Nc3ccc(S(=O)(=O)N(C)C)cc3)C2=O)cc1
IC50 (Protein skinhead-1): > 100 µM (inactive)

O=C(CCn1c(=S)[nH]c2ccccc2c1=O)NCCCN1CCCC1=O
IC50 (Protein skinhead-1): > 100 µM (inactive)

NC1=NC[C@H](c2ccccc2)N1CCc1cc(C(F)(F)F)cc(C(F)(F)F)c1
IC50 [1]: > 20 µM (inactive)

Cc1cc(OCc2cccc(Cl)c2)c(C)cc1CN1CCOCC1
IC50 (Protein skinhead-1): 6.33 µM (active)

COc1ccc(-c2nc3c(n2O)CCc2c-3no[n+]2[O-])cc1
EC50 (H4): 15 µM (active)
EC50 [2]: 22.2 µM (active)
EC50 [3]: > 120 µM (not active)

O=C1/C(=C\c2ccncc2)CCc2ccccc21
CC50 [5]: > 40 µM (active)

O=c1cc(N2CCN(c3ccc(F)cc3)CC2)[nH]c(=O)n1C1CCCCC1
EC50 (H4): 26.6 µM (active)
EC50 [2]: 17.3 µM (inconclusive)
EC50 [3]: > 120 µM (not active)

CCOCC(=O)Nc1ccc(C)c(Cl)c1
IC50 (cells): 37.1 µM (active)
IC50 (Protein skinhead-1): > 100 µM (inactive)

Cc1ccccc1NC(=O)c1cc(N)ccc1N1CCCCC1
IC50 (Large T antigen): 18.9 µM (active)

O=C(NNc1nc2ccccc2s1)c1ccccc1F
CC50 [5]: > 40 µM (active)
AC50 [9]: 14.2 µM (active)
AC50 (Cytochrome P450 1A2): 14.1 µM (inconclusive)

O=c1nc2n(c(O)c1C(c1c(O)nc3n(c1=O)CCS3)c1cccc3ccccc13)CCS2 (configuration not stated)
IC50 (Large T antigen): > 100 µM (active)

Cc1ncc([N+](=O)[O-])n1CCOC(=O)c1cc(Cl)cc(Cl)c1N
IC50 [8]: 6.77 µM (active)
EC50 [10]: > 260 µM (inactive)

COC(=O)c1ccccc1N=C(S)N(Cc1ccc2c(c1)OCO2)Cc1cc2cc(OC)ccc2nc1O
AC50 [11]: 10.4 µM (active)

Fc1ccc(-c2nc3ccc(Br)cn3c2Cc2ccccc2C(F)(F)F)cc1
IC50 (Protein skinhead-1): > 100 µM (inactive)

CCNC(=O)C1(C)CCCN1C(=O)c1ccc(C#N)cc1 (configuration not stated)
IC50 (Protein skinhead-1): > 100 µM (inactive)

C=C(C)CSc1cc(C)c(C#N)c2nc3ccccc3n12
CC50 [5]: 10.1 µM (active)

O=C(N/N=C/c1ccc(Cl)cc1)c1cc2c(s1)-c1ccccc1CC2
IC50 [8]: 20 µM (active)
EC50 [12]: 9.47 µM (active)
EC50 [13]: 10.5 µM (active)
